Results taken from US4978751A, “Low-calorie sweeteners of fructosyl oligosaccharides and the food or dietetic products or drinks containing them” (Roussel-Ulcaf, priority 1988, dated 1990).

Columns and labels:
[1] = system: homogenate of the jejunum of a rat; assay: in vitro; type: in vitro ADME; details: 0 min, pH 6
Description: (§1) Then the products are dissolved in a 0.05M sodium phosphate (buffer pH 6.0), so as to have a molar concentration of […]. […] The reaction mixture containing 2 ml of fructosyl oligosaccharide solution and 2 ml of homogenate is incubated for 24 hours at 37° C., under magnetic agitation. Samples are taken at regular intervals, and the intestinal enzymes are thermally inactivated. A parallel test is carried out on a control solution containing saccharose.

[2] = in vitro; type: in vitro ADME; details: rat, jejunum homogenate, pH 6
Description: as §1

[3] = system: alpha amylase from the pancreas of a pig; assay: Hydrolysis test with alpha amylase of the pancreas of a pig; details: substrate 3 g/liter, pH 7.0, 19 units enzyme, 2 hours at 37° C.
Description: The product is then dissolved is a 0.1M sodium phosphate buffer, (pH 7.0), so as to obtain a final concentration of 3 g/liter of fructosyl oligosaccharide. A mixture containing 2 ml of fructosyl oligosaccharide solution (prepared as above in 1.1) and 19 units of alpha amylase from the pancreas of a pig (SIGMA Ref […]) is incubated for 2 hours at 37° C. The reaction is stopped by heating. The glucose which has appeared is measured by the enzymatic method with glucose oxidase/peroxidase (Boehringer test Ref. 124036). A control test is carried out with maltodextrins, type glucidex 21 (Societe Roquette, France). The results are given in micromoles of glucose formed per enzyme unit and per hour.

[4] = system: homogenate of human jejunal mucous; assay: in vitro; type: in vitro ADME; details: 0 min
Description: (§2) The preparation is identical to that given in Example 2, paragraph 2.1. The jejunal mucous (about 40 mg) is homogenized in the presence of a 0.9% aqueous solution of NaCl (weight/volume) using a "Polytron" type homogenizer. The homogenate is then brought to 12 ml (with the 0.9% solution of NaCl). The reaction mixture containing 2 ml of fructosyl oligosaccharide solution and 2 ml of homogenate is incubated for 24 hours at 37° C. under magnetic agitation. Samples are taken at regular intervals and the intestinal enzymes are thermally inactivated. A parallel test is carried out on a control solution containing saccharose. […] [formula]

[5] = in vitro; type: in vitro ADME; details: human, jejunal mucous homogenate
Description: as §2

[6] = system: homogenate of the jejunum of a rat; assay: in vitro; details: 0 min, pH 6
Description: (§3) 5 cm of jejunum is removed from a male Sprague Dawley rat (previously put on a diet for 25 hours) and rinsed with a solution of physiological serum.
(§4) The jejunum (weighing about 150 mg) is pulverized in the presence of 0.9% NaCl (w/v) using a "Polytron" type homogenizer then the pulverized product is brought to 10 ml (with 0.9% NaCl solution).
(§5) The reaction mixture containing 2 ml of fructosyl oligosaccharide solution and 2 ml of homogenate is incubated for 24 hours at 37° C., under magnetic agitation.
(§6) In a second series of tests, the evolution of the composition of the fructosyl oligosaccharide is followed over a period of time by inverse plane HPLC (Nucleosil C18 column--eluent: water), the control sugar still being saccharose.

[7] = in vitro; details: rat, jejunum homogenate, pH 6
Description: as §3, §4, §5, §6

[8] = system: alpha amylase of human saliva; assay: Hydrolysis test with alpha amylase of human saliva; type: in vitro ADME; details: substrate 3 g/liter, pH 7.0, 17.8 units enzyme, 2 hours at 37° C.
Description: After 2 hours, the reaction is stopped by heating.

DH % (degree of hydrolysis) [1]	metabolised at 8.5 h [2]	metabolised at 17.5 h [2]	metabolised at 24 h [2]	Activity of the alpha amylase from the pancreas of a pig [3]	DH % (degree of hydrolysis) [4]	metabolised at 10 h [5]	metabolised at 24 h [5]	Composition in carbohydrate %: Cellobiofructose [6]	remaining at 8.5 h [7]	remaining at 24 h [7]	Activity of the alpha amylase of human saliva [8]	Composition in carbohydrate %: Gentiobiofructose [6]	Composition in carbohydrate %: Saccharose [6]	Structure (SMILES)
0%	0%	3.7%	5.4%	0 micromoles of glucose formed p	0%	0%	0%	100%	97%	93.6%	0 micromoles of glucose formed p			OC[C@H]1O[C@@](CO)(O[C@H]2O[C@H](CO)[C@@H](O[C@@H]3O[C@H](CO)[C@@H](O)[C@H](O)[C@H]3O)[C@H](O)[C@H]2O)[C@@H](O)[C@@H]1O [Cellobiofructose, cellobiofructose]
0%	0%	0.4%	0.4%	0 micromoles of glucose formed p	0%	0%	0%		100%	99.6%	0 micromoles of glucose formed p	100%		OC[C@H]1O[C@@](CO)(O[C@H]2O[C@H](CO[C@@H]3O[C@H](CO)[C@@H](O)[C@H](O)[C@H]3O)[C@@H](O)[C@H](O)[C@H]2O)[C@@H](O)[C@@H]1O [Gentiobiofructose, gentiobiofructose]
0%	57.6%	66.7%	92.7%		0%	57.1%	88%			4%			100%	OC[C@H]1O[C@@](CO)(O[C@H]2O[C@H](CO)[C@@H](O)[C@H](O)[C@H]2O)[C@@H](O)[C@@H]1O [Saccharose, saccharose, reference compound]
